Data taken from patent US8969516B2, “Method of hydrolysis of peptide bond” (priority 2006, dated 2015).

Test: MALDI-TOF screening of Ni^2+ dependent hydrolysis in a combinatorial peptide library
Type: physicochemical
Conditions: CH3CO-Gly-Ala-Ser-X-His-Z-Lys-Phe-Leu-NH2 library, Ni^2+ 2 mM, pH 8.2, 10 mM Tris, score=24/tm
How it was run: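 The screen used 1 mM peptide mixtures in 10 mM Tris, pH 8.2, with 2 mM Ni2+ at two temperatures, 37 °C and 45 °C. Product appearance and substrate decline were monitored visually by MALDI-TOF over 8 h. Scores for X and Z were then summed by row and column to rank substitutions.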

Substance	hydrolysis score from MALDI-TOF screening (37° C.)	hydrolysis score from MALDI-TOF screening (45° C.)
Ac-GASKHVKFL-NH2 [SKHV]	4 (a score of 4 for detection at 6 hours)	6 (a score of 6 for detection at 4 hours)
Ac-GASKHWKFL-NH2 [SKHW]	12 (a score of 12, if it was seen to be partially hydrolysed at 2 hours)	12 (a score of 12, if it was seen to be partially hydrolysed at 2 hours)
Ac-GASKHYKFL-NH2 [SKHY]	4 (a score of 4 for detection at 6 hours)	4 (a score of 4 for detection at 6 hours)
Ac-GASLHAKFL-NH2 [SLHA]	0 (a score of 0 if no trace of the product of hydrolysis was seen after 8 hours of incubation)	0 (a score of 0 if no trace of the product of hydrolysis was seen after 8 hours of incubation)
Ac-GASLHDKFL-NH2 [SLHD]	0 (a score of 0 if no trace of the product of hydrolysis was seen after 8 hours of incubation)	0 (a score of 0 if no trace of the product of hydrolysis was seen after 8 hours of incubation)
Ac-GASLHEKFL-NH2 [SLHE]	0 (a score of 0 if no trace of the product of hydrolysis was seen after 8 hours of incubation)	0 (a score of 0 if no trace of the product of hydrolysis was seen after 8 hours of incubation)
Ac-GASLHFKFL-NH2 [SLHF]	0 (a score of 0 if no trace of the product of hydrolysis was seen after 8 hours of incubation)	3 (a score of 3 for detection at 8 hours)
Ac-GASLHGKFL-NH2 [SLHG]	0 (a score of 0 if no trace of the product of hydrolysis was seen after 8 hours of incubation)	0 (a score of 0 if no trace of the product of hydrolysis was seen after 8 hours of incubation)
Ac-GASLHHKFL-NH2 [SLHH]	0 (a score of 0 if no trace of the product of hydrolysis was seen after 8 hours of incubation)	0 (a score of 0 if no trace of the product of hydrolysis was seen after 8 hours of incubation)
Ac-GASLHIKFL-NH2 [SLHI]	3 (a score of 3 for detection at 8 hours)	0 (a score of 0 if no trace of the product of hydrolysis was seen after 8 hours of incubation)
Ac-GASLHKKFL-NH2 [SLHK]	3 (a score of 3 for detection at 8 hours)	4 (a score of 4 for detection at 6 hours)
Ac-GASLHLKFL-NH2 [SLHL]	3 (a score of 3 for detection at 8 hours)	0 (a score of 0 if no trace of the product of hydrolysis was seen after 8 hours of incubation)
Ac-GASLHMKFL-NH2 [SLHM]	0 (a score of 0 if no trace of the product of hydrolysis was seen after 8 hours of incubation)	0 (a score of 0 if no trace of the product of hydrolysis was seen after 8 hours of incubation)
Ac-GASLHNKFL-NH2 [SLHN]	0 (a score of 0 if no trace of the product of hydrolysis was seen after 8 hours of incubation)	0 (a score of 0 if no trace of the product of hydrolysis was seen after 8 hours of incubation)
Ac-GASLHPKFL-NH2 [SLHP]	0 (a score of 0 if no trace of the product of hydrolysis was seen after 8 hours of incubation)	0 (a score of 0 if no trace of the product of hydrolysis was seen after 8 hours of incubation)
Ac-GASLHQKFL-NH2 [SLHQ]	0 (a score of 0 if no trace of the product of hydrolysis was seen after 8 hours of incubation)	0 (a score of 0 if no trace of the product of hydrolysis was seen after 8 hours of incubation)
Ac-GASLHRKFL-NH2 [SLHR]	3 (a score of 3 for detection at 8 hours)	4 (a score of 4 for detection at 6 hours)
Ac-GASLHSKFL-NH2 [SLHS]	0 (a score of 0 if no trace of the product of hydrolysis was seen after 8 hours of incubation)	0 (a score of 0 if no trace of the product of hydrolysis was seen after 8 hours of incubation)
Ac-GASLHTKFL-NH2 [SLHT]	0 (a score of 0 if no trace of the product of hydrolysis was seen after 8 hours of incubation)	0 (a score of 0 if no trace of the product of hydrolysis was seen after 8 hours of incubation)
Ac-GASLHVKFL-NH2 [SLHV]	0 (a score of 0 if no trace of the product of hydrolysis was seen after 8 hours of incubation)	3 (a score of 3 for detection at 8 hours)
Ac-GASLHWKFL-NH2 [SLHW]	3 (a score of 3 for detection at 8 hours)	4 (a score of 4 for detection at 6 hours)

Substance	hydrolysis score from MALDI-TOF screening (37° C.)	hydrolysis score from MALDI-TOF screening (45° C.)
Ac-GASLHYKFL-NH2 [SLHY]	0 (a score of 0 if no trace of the product of hydrolysis was seen after 8 hours of incubation)	3 (a score of 3 for detection at 8 hours)
Ac-GASMHAKFL-NH2 [SMHA]	0 (a score of 0 if no trace of the product of hydrolysis was seen after 8 hours of incubation)	3 (a score of 3 for detection at 8 hours)
Ac-GASMHDKFL-NH2 [SMHD]	0 (a score of 0 if no trace of the product of hydrolysis was seen after 8 hours of incubation)	0 (a score of 0 if no trace of the product of hydrolysis was seen after 8 hours of incubation)
Ac-GASMHEKFL-NH2 [SMHE]	0 (a score of 0 if no trace of the product of hydrolysis was seen after 8 hours of incubation)	0 (a score of 0 if no trace of the product of hydrolysis was seen after 8 hours of incubation)
Ac-GASMHFKFL-NH2 [SMHF]	3 (a score of 3 for detection at 8 hours)	4 (a score of 4 for detection at 6 hours)
Ac-GASMHGKFL-NH2 [SMHG]	0 (a score of 0 if no trace of the product of hydrolysis was seen after 8 hours of incubation)	0 (a score of 0 if no trace of the product of hydrolysis was seen after 8 hours of incubation)
Ac-GASMHHKFL-NH2 [SMHH]	0 (a score of 0 if no trace of the product of hydrolysis was seen after 8 hours of incubation)	3 (a score of 3 for detection at 8 hours)
Ac-GASMHIKFL-NH2 [SMHI]	4 (a score of 4 for detection at 6 hours)	12 (a score of 12, if it was seen to be partially hydrolysed at 2 hours)
Ac-GASMHKKFL-NH2 [SMHK]	3 (a score of 3 for detection at 8 hours)	6 (a score of 6 for detection at 4 hours)
Ac-GASMHLKFL-NH2 [SMHL]	4 (a score of 4 for detection at 6 hours)	12 (a score of 12, if it was seen to be partially hydrolysed at 2 hours)
Ac-GASMHMKFL-NH2 [SMHM]	3 (a score of 3 for detection at 8 hours)	3 (a score of 3 for detection at 8 hours)
Ac-GASMHNKFL-NH2 [SMHN]	0 (a score of 0 if no trace of the product of hydrolysis was seen after 8 hours of incubation)	0 (a score of 0 if no trace of the product of hydrolysis was seen after 8 hours of incubation)
Ac-GASMHPKFL-NH2 [SMHP]	0 (a score of 0 if no trace of the product of hydrolysis was seen after 8 hours of incubation)	0 (a score of 0 if no trace of the product of hydrolysis was seen after 8 hours of incubation)
Ac-GASMHQKFL-NH2 [SMHQ]	0 (a score of 0 if no trace of the product of hydrolysis was seen after 8 hours of incubation)	0 (a score of 0 if no trace of the product of hydrolysis was seen after 8 hours of incubation)
Ac-GASMHRKFL-NH2 [SMHR]	4 (a score of 4 for detection at 6 hours)	6 (a score of 6 for detection at 4 hours)
Ac-GASMHSKFL-NH2 [SMHS]	0 (a score of 0 if no trace of the product of hydrolysis was seen after 8 hours of incubation)	3 (a score of 3 for detection at 8 hours)
Ac-GASMHTKFL-NH2 [SMHT]	0 (a score of 0 if no trace of the product of hydrolysis was seen after 8 hours of incubation)	0 (a score of 0 if no trace of the product of hydrolysis was seen after 8 hours of incubation)
Ac-GASMHVKFL-NH2 [SMHV]	3 (a score of 3 for detection at 8 hours)	6 (a score of 6 for detection at 4 hours)
Ac-GASMHWKFL-NH2 [SMHW]	4 (a score of 4 for detection at 6 hours)	6 (a score of 6 for detection at 4 hours)
Ac-GASMHYKFL-NH2 [SMHY]	3 (a score of 3 for detection at 8 hours)	4 (a score of 4 for detection at 6 hours)
Ac-GASNHAKFL-NH2 [SNHA]	0 (a score of 0 if no trace of the product of hydrolysis was seen after 8 hours of incubation)	0 (a score of 0 if no trace of the product of hydrolysis was seen after 8 hours of incubation)
